A short description of assay [1]: NIH-3T3 fibroblast cytotoxicity, dose response, cytotoxicity control, cell-based, fluorescence, Alamar Blue, secondary assay (AID 2327).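 Note: NIH-3T3 mouse fibroblasts cultured with fluconazole at 8 µg/mL.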 Type of assay: functional. On the technique in general: The colour change of resazurin is a common sign of viable cells or microbes.
Assay [2] is described as follows: fluconazole-exposed Candida albicans growth modulators – fluorescence, retest, confirmation (AID 2467). It is filed as functional, cell-based.
Assay [3] concerns the target E3 ubiquitin-protein ligase UHRF1 (Homo sapiens, UniProt Q96T88). In words: Counterscreen for inhibitors of 5-meCpG-binding domain protein 2 (MBD2): TRFRET-based biochemical high throughput dose response assay to identify inhibitors of binding of ubiquitin-like with PHD and ring finger domains 1 (UHRF1) to methylated oligonucleotide.
For assay [4], the target named is T1, Low molecular weight phosphotyrosine protein phosphatase (Homo sapiens, UniProt P24666).
T1 sequence (P24666 whole entry): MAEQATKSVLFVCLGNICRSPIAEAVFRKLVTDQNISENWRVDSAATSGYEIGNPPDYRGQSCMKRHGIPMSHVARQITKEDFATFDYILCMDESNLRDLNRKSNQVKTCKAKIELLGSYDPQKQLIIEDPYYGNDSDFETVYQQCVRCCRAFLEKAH
The assay can be described thus: inhibition of LMPTP-A enzymatic activity – biochemical, OMFP substrate, fluorescence intensity, set 2, dose response (AID 743307). It is filed as functional.

The target of assay [5] is T1, Low molecular weight phosphotyrosine protein phosphatase. In words: inhibition of human LMPTP enzyme activity – biochemical, absorbance, pNPP substrate, LMPTP-A isoform, set 2, orthogonal assay, dose response (AID 743308). It is filed as functional.
The next assay has as its target Paired box protein Pax-8 (Homo sapiens, UniProt Q06710). In words: PAX8 transcriptional activity inhibition in RMG-I – RMG-I cells, luciferase, cherry-pick, dose response (AID 687027).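 Note: luciferase reporter driven by Pax8 target thyroperoxidase promoter measured by SteadyGlo luminescence.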 It is filed as functional, cell-based.
A short description of assay [6]: inhibitors acting on PAX2 in cells – cell-based, plate reader, dry powder samples, selectivity assay for PAX8 inhibitor project, dose response (AID 743048).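 Note: HEK293 cells carrying a WT1 promoter luciferase reporter driven by expressed Pax2; potency is for inhibition of Pax2 driven reporter signal.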 It is filed as functional.
Assay [7] is described as follows: COV362 cell viability loss – plate reader, dry powder, SA12, cytotoxicity control for PAX8 inhibitor project, dose response (AID 743144). It is filed as functional, cell-based.
Assay [8] in a line: OVCAR-3 cell viability loss – plate reader, dry powder samples, PAX8 inhibitor project, dose response (AID 743044). It is filed as functional, cell-based.
Assay [9] in a line: PAX5 cellular inhibition readout – cell-based, plate reader, dry powder samples, selectivity assay for PAX8 inhibitor project, dose response (AID 743047).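 Note: HEK293 cells carrying a Pax5 driven CD19 promoter luciferase reporter; potency of inhibitors that lower reporter luminescence.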 Type of assay: functional.
The nature of assay [10]: COV434 cell viability loss – plate reader, dry powder, SA7, cytotoxicity control for PAX8 inhibitor project, dose response (AID 743145). Type of assay: functional, cell-based.
Assay [11] is described as follows: OV-90 cell viability loss – plate reader, dry powder, SA8, PAX8 inhibitor project, dose response (AID 743149). Type of assay: functional, cell-based.
The nature of assay [12]: OVCAR8 cell viability loss – plate reader, dry powder samples, PAX8 project, dose response (AID 743197). The settings on record: OVCAR-8. Type of assay: functional, cell-based.
Assay [13] is described as follows: PAX8-dependent cell viability loss – plate reader, dry powder, dose response (AID 743049). Type of assay: functional, cell-based.
The nature of assay [14]: antimalarial activity against Dd2 parasites – SYBR Green fluorescence, erythrocytes, dry powder, set 2, dose response (AID 1159574). It is filed as functional, cell-based.
The nature of assay [15]: inhibitors of TRPM1-promoter reporter in SK-MEL-5 – cell-based, luciferase, dry powder, set 9, MITF inhibitor project, dose response (AID 651588). Type of assay: functional.
Assay [16] is described as follows: cytotoxicity in MITF-independent A375 cells – cell-based, CellTiter-Glo luminescence, dry powder, set 4, counter-screen for MITF inhibitor project, dose response (AID 624364).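 Note: A375 melanoma cells are MITF independent so this is a counter screen.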 Type of assay: functional. Particulars: A-375.
A short description of assay [17]: viability loss in MITF-independent A375 cells – cell-based, CellTiter-Glo luminescence, dry powder, set 7, counter-screen for MITF inhibitor project, dose response (AID 624490). Type of assay: functional. Particulars: A-375. (In general: ATP-based viability assays read luminescence as a measure of living cells.)
The nature of assay [18]: MITF Orthogonal Assay: MALME3 CTG Assay Measured in Cell-Based System Using Plate Reader - 2084-04_Inhibitor_Dose_DryPowder_Activity_Set6. It is filed as functional. Particulars: MALME-3.
A short description of assay [19]: growth inhibition of SK-MEL-5 melanoma cells – cell-based, CellTiter-Glo luminescence, dry powder, set 8, orthogonal assay for MITF inhibitor project, dose response (AID 651586). It is filed as functional.
The nature of assay [20]: growth inhibition of MALME3 cells – cell-based, CellTiter-Glo luminescence, dry powder, set 5, orthogonal assay for MITF inhibitor project, dose response (AID 651584). Type of assay: functional. The settings on record: MALME-3.
Assay [21] can be described thus: cytotoxicity in melanoma parental cells – cell-based, CellTiter-Glo, dry powder, set 6, MITF inhibitor project, dose response (AID 624429). Particulars: SK-MEL-5. Type of assay: functional.
Assay [22] in a line: MITF Orthogonal Assay: SK-MEL-5 CTG Assay Measured in Cell-Based System Using Plate Reader - 2084-02_Inhibitor_Dose_DryPowder_Activity_Set5. It is filed as functional.
Assay [23] can be described thus: viability loss in MITF-independent A375 cells – cell-based, CellTiter-Glo luminescence, dry powder, set 6, counter-screen for MITF inhibitor project, dose response (AID 624488). Particulars: A-375. Type of assay: functional.
Assay [24] in a line: cytotoxicity in MITF-independent A375 cells – cell-based, CellTiter-Glo luminescence, dry powder, set 9, counter-screen for MITF modulator project, dose response (AID 651591). It is filed as functional. The settings on record: A-375.
Assay [25] can be described thus: MITF Measured in Cell-Based System Using Plate Reader - 2084-01_Inhibitor_Dose_DryPowder_Activity_Set6. It is filed as functional.
The nature of assay [26]: MITF Measured in Cell-Based System Using Plate Reader - 2084-01_Inhibitor_Dose_DryPowder_Activity_Set7. Type of assay: functional.
The nature of assay [27]: melanocyte viability loss, MITF-dependent cells, cell-based, plate reader, dry powder, cytotoxicity control, dose response (AID 651920). It is filed as functional.
A further assay deals with Trypsin (Sus scrofa, UniProt P00761). The assay can be described thus: trypsin protease activity blockade – biochemical, quenched peptide fluorescence, cherry-pick, selectivity assay for Rce1 protease inhibitor project, dose response (AID 488789).
Sequence of Trypsin (P00761 whole entry): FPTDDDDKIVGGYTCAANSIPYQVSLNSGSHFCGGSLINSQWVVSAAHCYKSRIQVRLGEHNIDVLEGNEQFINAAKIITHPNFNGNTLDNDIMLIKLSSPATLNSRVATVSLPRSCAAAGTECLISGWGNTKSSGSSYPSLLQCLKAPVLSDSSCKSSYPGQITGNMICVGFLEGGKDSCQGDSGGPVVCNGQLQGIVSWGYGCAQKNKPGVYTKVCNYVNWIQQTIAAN
Assay [28] addresses T2, CAAX prenyl protease 2 (Saccharomyces cerevisiae S288c, UniProt Q03530).
T2 sequence (Q03530 whole entry): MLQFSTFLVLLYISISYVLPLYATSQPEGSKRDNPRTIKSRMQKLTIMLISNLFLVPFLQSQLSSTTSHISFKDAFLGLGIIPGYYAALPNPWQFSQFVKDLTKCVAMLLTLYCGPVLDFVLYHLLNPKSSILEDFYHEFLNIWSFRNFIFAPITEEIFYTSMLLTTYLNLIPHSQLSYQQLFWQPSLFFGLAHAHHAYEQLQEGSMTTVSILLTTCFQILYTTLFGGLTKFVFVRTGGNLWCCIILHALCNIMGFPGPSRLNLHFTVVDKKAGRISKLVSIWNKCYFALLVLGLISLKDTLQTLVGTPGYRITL
It is filed as biochemical.

For assay [29], the target named is T3, CAAX prenyl protease 2 (Homo sapiens, UniProt Q9Y256).
T3 sequence (Q9Y256 whole entry): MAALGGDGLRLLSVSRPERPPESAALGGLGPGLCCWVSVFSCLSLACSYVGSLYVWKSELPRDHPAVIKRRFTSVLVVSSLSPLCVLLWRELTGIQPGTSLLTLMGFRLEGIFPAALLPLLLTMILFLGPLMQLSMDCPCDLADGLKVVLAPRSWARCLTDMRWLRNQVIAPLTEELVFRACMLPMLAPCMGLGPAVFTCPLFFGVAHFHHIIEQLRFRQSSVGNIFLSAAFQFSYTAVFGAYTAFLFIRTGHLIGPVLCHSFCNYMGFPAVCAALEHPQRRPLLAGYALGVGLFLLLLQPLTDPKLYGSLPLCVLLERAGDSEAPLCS
The assay can be described thus: inhibition of Ras-converting CAAX protease Rce1 – biochemical, yeast membranes, quenched-peptide fluorescence, cherry-pick, dose response (AID 588849).

Another assay addresses Kallikrein-7 (Homo sapiens, UniProt P49862). The assay can be described thus: Fluorescence Intensity-based biochemical primary high throughput dose response assay to identify activators of kallikrein-7 (K7) zymogen.
Assay [30] is described as follows: inhibitors of non-replicating M. tuberculosis, dose response, luciferase, dry powder (AID 651619). Type of assay: functional. Particulars: Mycobacterium tuberculosis.
The nature of assay [31]: inhibitors of non-replicating M. tuberculosis, dose response, luciferase, dry powder (AID 651620). Type of assay: functional. Particulars: Mycobacterium tuberculosis.
A short description of assay [32]: growth inhibition of replicating M. tuberculosis, dose response, counter-screen, dry powder, IC90 (AID 651617). Type of assay: functional. Particulars: Mycobacterium tuberculosis.

SMILES strings stand for the structures. The source made the active and inactive calls.

Sequence of Kallikrein-7 (P49862 whole entry): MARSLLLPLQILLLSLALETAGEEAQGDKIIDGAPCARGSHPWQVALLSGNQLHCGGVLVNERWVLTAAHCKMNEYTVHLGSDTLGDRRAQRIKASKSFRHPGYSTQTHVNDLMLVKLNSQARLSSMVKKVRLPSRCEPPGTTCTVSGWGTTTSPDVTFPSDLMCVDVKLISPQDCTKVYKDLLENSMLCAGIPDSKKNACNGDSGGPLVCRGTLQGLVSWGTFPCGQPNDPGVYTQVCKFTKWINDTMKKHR
Sequence of Paired box protein Pax-8 (Q06710 whole entry): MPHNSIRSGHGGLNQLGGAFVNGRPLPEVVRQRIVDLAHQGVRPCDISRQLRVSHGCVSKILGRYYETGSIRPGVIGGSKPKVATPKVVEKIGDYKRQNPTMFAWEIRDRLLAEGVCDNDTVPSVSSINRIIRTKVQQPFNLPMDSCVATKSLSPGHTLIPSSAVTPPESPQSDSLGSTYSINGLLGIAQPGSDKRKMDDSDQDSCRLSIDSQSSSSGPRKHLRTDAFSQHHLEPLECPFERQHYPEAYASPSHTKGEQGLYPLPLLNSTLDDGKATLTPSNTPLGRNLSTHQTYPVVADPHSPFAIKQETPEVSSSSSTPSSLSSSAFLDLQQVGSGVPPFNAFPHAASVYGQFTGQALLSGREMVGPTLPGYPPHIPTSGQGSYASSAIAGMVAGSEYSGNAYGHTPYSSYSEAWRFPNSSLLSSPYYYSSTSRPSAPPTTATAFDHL
Sequence of E3 ubiquitin-protein ligase UHRF1 (Q96T88 whole entry, the tested form may be a part): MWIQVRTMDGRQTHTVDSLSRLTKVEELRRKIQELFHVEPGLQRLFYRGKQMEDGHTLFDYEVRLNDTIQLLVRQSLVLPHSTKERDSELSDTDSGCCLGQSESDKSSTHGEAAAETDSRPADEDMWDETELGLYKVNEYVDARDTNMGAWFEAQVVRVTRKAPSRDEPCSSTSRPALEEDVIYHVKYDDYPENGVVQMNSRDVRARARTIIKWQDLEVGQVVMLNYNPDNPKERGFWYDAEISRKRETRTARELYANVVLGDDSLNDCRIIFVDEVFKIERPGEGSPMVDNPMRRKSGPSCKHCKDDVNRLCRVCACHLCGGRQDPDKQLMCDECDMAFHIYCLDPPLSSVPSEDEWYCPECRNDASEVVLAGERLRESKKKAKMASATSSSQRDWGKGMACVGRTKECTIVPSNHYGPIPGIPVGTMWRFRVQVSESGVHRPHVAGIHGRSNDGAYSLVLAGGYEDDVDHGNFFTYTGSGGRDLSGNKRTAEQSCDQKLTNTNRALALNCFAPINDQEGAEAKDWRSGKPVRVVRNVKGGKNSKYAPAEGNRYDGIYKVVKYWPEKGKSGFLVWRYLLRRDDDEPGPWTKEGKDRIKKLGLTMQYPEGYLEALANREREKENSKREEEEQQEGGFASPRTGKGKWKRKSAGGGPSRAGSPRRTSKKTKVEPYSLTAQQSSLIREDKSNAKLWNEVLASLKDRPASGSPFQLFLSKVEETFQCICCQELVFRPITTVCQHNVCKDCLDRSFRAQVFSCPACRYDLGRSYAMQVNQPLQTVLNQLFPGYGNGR

By EC50 is commonly meant the concentration needed to bring the measured effect to its halfway point. The term IC50 denotes the midpoint of a concentration-inhibition curve. Regarding `Cc1ccc(-c2cc(-c3ccccc3)cc(-c3ccccc3)[n+]2-c2ccccc2C(=O)O)cc1.[O-][Cl+3]([O-])([O-])[O-]`, the EC50 in assay [1] was > 160 µM (inactive); in assay [2], 3.23 µM (inconclusive). For the same molecule, in assay [3], the IC50 is 18.9 µM (inactive).
Take `COc1ccccc1-c1cc(NCCCN2CCCCC2)c2ccccc2n1`: the IC50 in [4] is 2.87 µM (active); in [5], 7.13 µM (active).
Usually AC50 stands for the concentration at which the activity in the assay is half-maximal. Take `C[C@H](CO)N1C[C@H](C)[C@@H](CN(C)Cc2ccc(C(F)(F)F)cc2)Oc2ccc(NS(=O)(=O)c3ccccc3)cc2CC1=O`: the AC50 at Paired box protein Pax-8 was 10.1 µM (active); in assay [6] it was 21 µM (active); in [7], > 70 µM (inactive); in assay [8], 51.5 µM (active); in assay [9], 23 µM (active); in assay [10], 46.2 µM (active). Moreover, the AC50 is 54 µM (active) in assay [11], > 70 µM (inactive) in [12] and 53.2 µM (active) in [13].
For `COc1cccc(C#Cc2ccc([C@@H]3[C@@H](CO)N4C(=O)CN(C(=O)Cc5ccccc5)C[C@@H]34)cc2)c1`, the half-maximal activity concentration (AC50) in [14] is 4.88 µM (active).
Take `COC1=C(NS(=O)(=O)c2ccc(Br)cc2)C(=O)c2ccccc2C1=O`: the AC50 in [15] is 38.3 µM (active); in [16], > 70 µM (inactive); in assay [17] it was > 70 µM (inactive); in [18] it was 34.9 µM (active); in [19], 19.8 µM (active); in assay [20] it was 34.9 µM (active). Also, the half-maximal activity concentration (AC50) in [21] is 21.5 µM (active); in [22], 12 µM (active); in assay [23], > 70 µM (inactive); in assay [24], > 70 µM (inactive); in assay [25], 14.8 µM (active); in [26], 10.4 µM (active). Also, the AC50 in [27] was > 70 µM (inactive).
On to `Cc1oc2c(CN3CCCC3)c(O)ccc2c(=O)c1-c1ccc(Br)cc1`, for which the AC50 on Trypsin was 9.06 µM (active); at CAAX prenyl protease 2 [28] it was 12 µM (active); at CAAX prenyl protease 2 [29] it was 10 µM (active). In addition, the EC50 on Kallikrein-7 is > 69.5 µM (inactive).
What is called IC90 is the concentration needed for an effect of 90%. Turning to `Fc1ccc(Cn2cc(CSc3nnc(C4CCCC4)o3)nn2)cc1`, the values for the IC90 in assay [30], in assay [31] and in [32] were 2 µM (active), 2 µM (active) and 250 µM (active), respectively.

(Values after ChEMBL document CHEMBL1201862, “PubChem BioAssay data set” (2004).)
